How the values were obtained:
[1] = molecular target: streptavidin homotetramer (S4) (Streptomyces avidinii, UniProt P22629); experiment: CUPRA library screening against negative control streptavidin; format: binding; parameters: key: ratio change on GBP addition; ~1.0 = no binding (negative control); conditions: depletion index, 50 μM streptavidin
[2] = test system: family 51 carbohydrate binding module (CBM51); experiment: CUPRA library screening and affinity, CBM51; conditions: 25uM CBM51; mean of 4 DIi values, FigS3a
Method: Unless otherwise noted, the measurements were performed at 25 °C. […] We identified specific ligands from the depletion index (DIi, Eq. 1) – the change in the fractional abundance (Fi, Eq. 2) ratio of ligand i-bound and free ^UniPproxy ions upon addition of GBP. Prior to calculating Fi, we treated each mass spectrum with the Sliding Window Adducts Removal Method (SWARM)[18] to remove contributions to the abundance of ^UniPproxy -OS^mod complex ions from adducts, formed by the ESI process, of neighbouring complex ions (Supplementary Fig. 2). Shown in Fig. 2a is a summary of the DIi measured by CUPRA screening of the 66-component library against S4 (50 μM). As expected, the average DIi for this negative control is close to 1.0 (0.99 ± 0.03). In contrast, CUPRA screening against the positive controls produced decreases in DIi for one or more of the library components. […] Application of CUPRA to human CD22, part of an important class of Neu5Ac-binding GBPs implicated in both innate and adaptive immunity, correctly identified HMO08 as a ligand (Supplementary Fig. 4a). CUPRA screening of MAA at high concentration (50 μM) identified HMO03 and GA06 as ligands. […]
Using SWARM-treated mass spectra, DIi was calculated for each ligand from the ratio of the fractional abundances (Fi) of ligand (i)-bound and free ^UniPproxy ions in the presence (+GBP) and absence (-GBP) of GBP, Eqs. […]

human siglec-2 (CD22) = molecular target: T1, human siglec-2 (CD22) (Homo sapiens, UniProt P20273); experiment: CUPRA library screening and affinity, siglec-2; format: binding; conditions: for average DI: mean of 4 DIi values
T1 construct: Residues 1–332 of human Siglec-2 (MW 140 kDa, purity > 95%) were cloned in frame with human IgG1 Fc and a C-terminal His6; made in house
T1 sequence (P20273 20-332): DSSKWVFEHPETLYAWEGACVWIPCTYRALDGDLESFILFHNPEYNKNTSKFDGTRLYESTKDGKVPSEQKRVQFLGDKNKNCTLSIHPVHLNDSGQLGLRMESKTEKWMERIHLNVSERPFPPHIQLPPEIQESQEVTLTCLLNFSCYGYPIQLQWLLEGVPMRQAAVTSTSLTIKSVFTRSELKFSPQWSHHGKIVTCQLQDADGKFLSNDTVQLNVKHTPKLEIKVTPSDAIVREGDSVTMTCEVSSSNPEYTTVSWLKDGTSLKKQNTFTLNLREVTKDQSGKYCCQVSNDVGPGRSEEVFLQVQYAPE

streptavidin homotetramer (S4), sequence (P22629 25-183): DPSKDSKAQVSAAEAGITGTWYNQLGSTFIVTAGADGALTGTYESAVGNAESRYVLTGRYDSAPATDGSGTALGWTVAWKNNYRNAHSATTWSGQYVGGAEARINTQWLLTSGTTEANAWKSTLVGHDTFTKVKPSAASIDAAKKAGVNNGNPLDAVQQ

How did the “average DI” value ([1]; mean of 4) turn out when `CC(=O)N[C@H]1[C@H](O[C@@H]2[C@H](O[C@]3(C(=O)O)C[C@H](O)[C@@H](NC(C)=O)[C@H]([C@H](O)[C@@H](CO)O[C@]4(C(=O)O)C[C@H](O)[C@@H](NC(C)=O)[C@H]([C@H](O)[C@H](O)CO)O4)O3)[C@@H](O)[C@H](O[C@H]3[C@H](O)[C@@H](O)[C@H](N(CCOCCOCCNC(=O)[C@H](Cc4ccccc4)NC(=O)[C@H](Cc4ccccc4)NC(=O)CCCC(=O)NCCc4ccc(S(N)(=O)=O)cc4)C(C)=O)O[C@@H]3CO)O[C@@H]2CO)O[C@H](CO)[C@H](O)[C@@H]1O` [GA10, GalNAcβ1-4(Neu5Acα2-8 Neu5Acα2-3)Galβ1-4Glc-CL] was run?
Its value is 0.9828.

And the “DIi(50uM S4)” value ([1]; measurement 1 of 4)?
The value was 0.9829.

What about the “DIi(50uM S4)” value ([1]; measurement 2 of 4) of the same molecule?
Its value is 0.9821.

What about the “DIi(50uM S4)” value ([1]; measurement 3 of 4) of the same molecule?
The value was 0.9835.

What about the “DIi(50uM S4)” value ([1]; measurement 4 of 4) of the same molecule?
The value was 0.9826.

And the “average DI” value [2]?
The value was 0.9576.

What about the “average DI” value (human siglec-2 (CD22); 25uM CD22) of the same molecule?
Its value is 0.9974.

What about the “DIi(25uM CD22)” value (human siglec-2 (CD22); 25uM CD22, replicate column 1 of 4) of the same molecule?
The value was 0.9925.

What about the “DIi(25uM CD22)” value (human siglec-2 (CD22); 25uM CD22, replicate column 2 of 4) of the same molecule?
The value was 1.005.

What about the “DIi(25uM CD22)” value (human siglec-2 (CD22); 25uM CD22, replicate column 3 of 4) of the same molecule?
The value was 0.9899.

And the “DIi(25uM CD22)” value (human siglec-2 (CD22); 25uM CD22, replicate column 4 of 4)?
The value was 1.002.

What about the “average DI” value (human siglec-2 (CD22); 25uM CD22 at 0C) of the same molecule?
Its value is 0.9401.

What about the “DIi(25uM CD22 at 0C)” value (human siglec-2 (CD22); 25uM CD22 at 0C, replicate column 1 of 4) of the same molecule?
The value was 0.9406.

And the “DIi(25uM CD22 at 0C)” value (human siglec-2 (CD22); 25uM CD22 at 0C, replicate column 2 of 4)?
Its value is 0.9609.

And the “DIi(25uM CD22 at 0C)” value (human siglec-2 (CD22); 25uM CD22 at 0C, replicate column 3 of 4)?
Its value is 0.9196.

And the “DIi(25uM CD22 at 0C)” value (human siglec-2 (CD22); 25uM CD22 at 0C, replicate column 4 of 4)?
Its value is 0.9395.
